Values of other authors as cited in patent publication US20030032674A1, “Use of unsaturated fatty acids to treat severe inflammatory diseases” (priority 2001, published 2003).

Assays:
[1] = infusion; cited from earlier work
[2] = tested on: platelet aggregation; conditions: infusion; cited from earlier work
[3] = tested on: natural killer cell activity; conditions: infusion; mice and humans; cited from earlier work

## 1,2,3-trieicosapentaenoyl-glycerol [EPA-TG]
[1]
  urinary concentration of prostaglandin I3 and thromboxane A3: increase
[2]
  platelet aggregation: decrease
[3]
  natural killer cell activity: inhibit
